These results are taken from article PMC9271751, “Synthesis and Evaluation of Coumarin-Chalcone Derivatives as α-Glucosidase Inhibitors” (Frontiers in Chemistry, 2022).

Test [1] concerns the target T1, α-Glucosidase from Saccharomyces cerevisiae (EC 3.2.1.20) (Saccharomyces cerevisiae, UniProt P53341).
T1 construct: purchased Sigma-Aldrich
Nature of the test: α-Glucosidase inhibition kinetics (v vs. enzyme concentration, Lineweaver-Burk plots). The class given is biochemical. Conditions: for Inhibition mechanism (inhibition type): Lineweaver-Burk double reciprocal plot, p-NPG 0.25-1 mM; for Inhibition mechanism (inhibition type) / Reversibility of inhibition: compound 0, 25, 30, 40 μM; for KIS: enzyme-substrate complex, secondary plot of intercept vs. compound concentration; for Reversibility of inhibition: plots of v vs. α-glucosidase concentration (0.075-0.15 U/mL). From the text: Generally, according to the type of inhibition, enzyme inhibitors can be divided into reversible inhibitors and irreversible inhibitors ([Abuelizz et al., 2019]). In order to obtain the principle of the combination of enzyme inhibitors and enzymes, it is necessary to study the interaction between enzyme inhibitors and enzymes. Compounds 3j, 3q and 3t with strongest inhibitory activity were chosen for the research of inhibition kinetics against α-glucosidase (the inhibitory mechanism analysis of compound 3t was shown in Figure 2 and figures for the inhibitory mechanism analysis of compounds 3j and 3q have been shown in the supporting information). A series of plots of enzymatic reaction rate (v) vs. α-glucosidase concentration in the presence of inhibitors were generated to identify the type of inhibition that is listed in Figure 1.
The inhibit type of inhibitors on α-glucosidase include four types, named competitive inhibition, non-competitive inhibition, mixed inhibition, and anti-competitive inhibition ([Abuelizz et al., 2019]). The inhibition modes of compounds 3j, 3q and 3t against α-glucosidase were investigated using Lineweaver-Burk double reciprocal plot.
The type of inhibition was identified by the plots of enzymatic reaction rate (V) vs. α-glucosidase concentration. The test method was similar to the above enzyme activity assay. In the presence of different concentrations of compounds 3j, 3q and 3t, respectively (0, 25, 30, and 40 μM), the absorbance change was detected under different concentrations of α-glucosidase (0.075, 0.1, 0.125, and 0.15 U/mL).
The inhibition mode was also detected using a similar method to that described above. In the presence of different concentrations of compounds 3j, 3q and 3t, respectively (0, 25, 30 and 40 μM), the absorbance change was measured under different concentrations of p-NPG (0.25, 0.5, 0.75, 1 mM). The inhibition mode of the inhibitor was obtianed using Lineweaver-Burk plots. The constant KI was obtained by secondary plots of the derivatives concentration (I) vs. Slope, constant KIS was obtained by secondary plots of the derivatives concentration (I) vs. Intercept.

In test [2] the target is T1, α-Glucosidase from Saccharomyces cerevisiae (EC 3.2.1.20). Nature of the test: biochemical. The procedure: Ethyl acetoacetate, salicylaldehyde and absolute ethanol were analytical pure grade and purchased from Aladdin (Shanghai) Reagent Co., Ltd. Piperidine; glacial acetic acid, petroleum ether and ethyl acetate were supplied by Titan (Shanghai) Technology Co., Ltd.; α-Glucosidase from Saccharomyces cerevisiae (EC 3.2.1.20), 4-nitrophenyl-α-D-[…] (p-NPG), and Dimethyl sulfoxide (DMSO) were supported by Sigma-Aldrich (United States) Chemical Co., Ltd. Melting points were tested on a micro melting-point instrument. ^1H NMR spectra were measured (CDCl3) by Bruker DPX-500 MHz AVANCE with TMS as an internal standard. Mass spectroscopy was performed on a (LCQTM). The absorbance was recorded by a micro-plate reader.
The α-glucosidase inhibitory activity assay of coumarin-chalcone derivatives 3 (a∼v) was conducted using p-NPG as a substrate. ([Pogaku et al., 2019]; [Saeedi et al., 2019]; [Xu et al., 2019]). 10 μl of the test compound and 10 μl of the enzyme (final concentration 0.1 U/ml) were added to 130 μl of PBS (0.1 M phosphate, pH 6.8), and incubated at 37°C for 10 min. Then p-NPG (final concentration 0.25 mM) was added and the absorbance change was measured by a micro-plate reader at 405 nm. All experiments were assayed four times. The percentage of inhibition was obtained using the formula: Inhibition (%) = […] × 100%, where OD1 and OD0 represent the absorbance value of the experimental group and the blank group respectively. […] The IC50 value of each compound was obtained from the fitting curve of inhibition vs. compound concentration.

[3] abbreviates: p-NPG 0.25 mM, enzyme 0.1 U/ml, PBS pH 6.8, 37°C, read-out: IC50, α-glucosidase inhibitory activity.

Read-outs that look alike come from different tables or passages of the source.

T1 sequence (P53341 whole entry): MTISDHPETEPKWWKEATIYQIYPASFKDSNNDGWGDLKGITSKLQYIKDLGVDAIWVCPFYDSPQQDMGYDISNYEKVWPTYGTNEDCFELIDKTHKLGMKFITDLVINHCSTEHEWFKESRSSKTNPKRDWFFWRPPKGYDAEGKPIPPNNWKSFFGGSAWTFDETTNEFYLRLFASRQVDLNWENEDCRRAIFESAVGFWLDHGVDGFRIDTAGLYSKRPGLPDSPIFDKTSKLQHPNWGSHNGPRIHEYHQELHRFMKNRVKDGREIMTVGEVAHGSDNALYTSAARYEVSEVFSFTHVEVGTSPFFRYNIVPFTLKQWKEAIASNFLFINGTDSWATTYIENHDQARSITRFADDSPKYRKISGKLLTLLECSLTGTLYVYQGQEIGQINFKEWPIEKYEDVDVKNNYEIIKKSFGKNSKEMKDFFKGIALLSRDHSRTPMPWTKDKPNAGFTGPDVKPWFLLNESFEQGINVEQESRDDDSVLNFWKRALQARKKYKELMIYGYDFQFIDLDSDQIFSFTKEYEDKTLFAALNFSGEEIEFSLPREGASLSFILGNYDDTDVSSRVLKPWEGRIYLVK

For `O=C(/C=C/c1ccc(Cl)cc1)c1cc2ccccc2oc1=O` [Compound 3q, (E)-3-[3-(4-chlorophenyl)acryloyl]-2H-chromen-2-one], in test [1], the Ki – broadly, a dissociation constant, usually derived from enzyme kinetics or from competition with a known ligand – came to 16.1 µM; the “Inhibition mechanism (inhibition type)” value is given as “mixed-type inhibition”; the Reversibility of inhibition entry is “reversible”. In test [1] (inhibition constant), the KIS worked out at 20.34 µM. In addition, 29.7 ± 2.68 µM corresponded to half-maximal inhibition in test [2] (IC50).

Regarding `O=C(/C=C/c1cccc(C(F)(F)F)c1)c1cc2ccccc2oc1=O` [Compound 3m, (E)-3-{3-[3-(trifluoromethyl)phenyl]acryloyl}-2H-chromen-2-one], the IC50 (in general, the concentration needed to halve the response being measured) in test [2] (setting [3]) amounted to 64.7 ± 1.82 µM.

On to `O=C(/C=C/c1ccccc1C(F)(F)F)c1cc2ccccc2oc1=O` [Compound 3l, (E)-3-{3-[2-(trifluoromethyl)phenyl]acryloyl}-2H-chromen-2-one], for which the IC50 in test [2] (setting [3]) was determined as 71.5 ± 2.14 µM.

Turning to `O=C(/C=C/c1ccc(F)c(F)c1)c1cc2ccccc2oc1=O` [Compound 3k, (E)-3-[3-(3,4-difluorophenyl)acryloyl]-2H-chromen-2-one], the concentration for half-maximal inhibition (IC50) in test [2] (setting [3]) was 49.7 ± 3.28 µM.

On to `O=C(/C=C/c1ccccc1F)c1cc2ccccc2oc1=O` [Compound 3g, (E)-3-[3-(2-fluorophenyl)acryloyl]-2H-chromen-2-one], for which the midpoint of inhibition in test [2], the IC50, lay at 48.4 ± 1.42 µM.

In test [2], `O=C(/C=C/c1ccccc1)c1cc2ccccc2oc1=O` [Compound 3a, (E)-3-cinnamoyl-2H-chromen-2-one] came in with an IC50 of 125.3 ± 1.18 µM.

In the case of `COc1cccc(/C=C/C(=O)c2cc3ccccc3oc2=O)c1` [Compound 3d, (E)-3-[3-(3-methoxyphenyl)acryloyl]-2H-chromen-2-one], the IC50 in test [2] (setting [3]) was 96.4 ± 1.37 µM.

For the compound `Cc1ccc(/C=C/C(=O)c2cc3ccccc3oc2=O)cc1` [Compound 3b, (E)-3-[3-(p-tolyl)acryloyl]-2H-chromen-2-one], the IC50 in test [2] (setting [3]) came out at 95.2 ± 1.35 µM.

Take `O=C(/C=C/c1ccc(Br)cc1)c1cc2ccccc2oc1=O` [Compound 3t, (E)-3-[3-(4-bromophenyl)acryloyl]-2H-chromen-2-one]: in test [1], the inhibitory constant (Ki) was found to be 11 µM, the “Inhibition mechanism (inhibition type)” value is “mixed-type inhibition” and the Reversibility of inhibition entry is on record as “reversible”. This compound came in with a half-inhibitory concentration (IC50) in test [2] of 24.1 ± 2.36 µM.

For `O=C(/C=C/c1ccc(C(F)(F)F)cc1)c1cc2ccccc2oc1=O` [Compound 3n, (E)-3-{3-[4-(trifluoromethyl)phenyl]acryloyl}-2H-chromen-2-one], in test [2] (setting [3]), the half-maximal inhibitory concentration (IC50) is 53.6 ± 1.95 µM.

Compound `O=C(/C=C/c1ccccc1Cl)c1cc2ccccc2oc1=O` [Compound 3o, (E)-3-[3-(2-chlorophenyl)acryloyl]-2H-chromen-2-one] came in with an IC50 in test [2] of 59.7 ± 1.73 µM.

`O=C(/C=C/c1cccc(F)c1)c1cc2ccccc2oc1=O` [Compound 3h, (E)-3-[3-(3-fluorophenyl)acryloyl]-2H-chromen-2-one]: in test [2], it took 45.7 ± 1.28 µM to reach half-maximal inhibition (IC50).

In the case of `O=C(/C=C/c1cc2ccccc2[nH]1)c1cc2ccccc2oc1=O` [Compound 3v, (E)-3-[3-( ^ 1 H-indol-2-yl)acryloyl]-2H-chromen-2-one], in test [2] (setting [3]), the half-maximal inhibitory concentration (IC50) came to 103 ± 1.45 µM.

For `O=C(/C=C/c1cccs1)c1cc2ccccc2oc1=O` [Compound 3u, (E)-3-[3-(thiophen-2-yl)acryloyl]-2H-chromen-2-one], the IC50 in test [2] (setting [3]) was 109 ± 2.69 µM.

For `COc1ccccc1/C=C/C(=O)c1cc2ccccc2oc1=O` [Compound 3c, (E)-3-[3-(2-methoxyphenyl)acryloyl]-2H-chromen-2-one], the IC50 in test [2] (setting [3]) was 60.9 ± 2.74 µM.

In test [2], `O=C(/C=C/c1cccc(Cl)c1)c1cc2ccccc2oc1=O` [Compound 3p, (E)-3-[3-(3-chlorophenyl)acryloyl]-2H-chromen-2-one] yielded an IC50 of 52.6 ± 2.45 µM.

Regarding `O=C(/C=C/c1cccc(Br)c1)c1cc2ccccc2oc1=O` [Compound 3s, (E)-3-[3-(3-bromophenyl)acryloyl]-2H-chromen-2-one], in test [2], the IC50 was found to be 35.6 ± 2.18 µM.

As for `O=C(/C=C/c1ccc(F)cc1F)c1cc2ccccc2oc1=O` [Compound 3j, (E)-3-[3-(2,4-difluorophenyl)acryloyl]-2H-chromen-2-one], in test [1], the “Inhibition mechanism (inhibition type)” value is on record as “mixed-type inhibition” and the Reversibility of inhibition result is recorded as “reversible”. Also, in test [1] (inhibition constant), the KIS worked out at 25.94 µM. The inhibition constant (Ki) in test [1] (inhibition constant, free enzyme, secondary plot of slope vs. compound concentration, read-out: KI) was 19.5 µM. Besides, the IC50 in test [2] (setting [3]) was determined as 30.3 ± 2.53 µM.

Regarding `CSc1ccc(/C=C/C(=O)c2cc3ccccc3oc2=O)cc1` [Compound 3f, (E)-3-{3-[4-(methylthio)phenyl]acryloyl}-2H-chromen-2-one], in test [2] (setting [3]), the IC50 worked out at 75.5 ± 0.98 µM.

`O=C(/C=C/c1ccc(F)cc1)c1cc2ccccc2oc1=O` [Compound 3i, (E)-3-[3-(4-fluorophenyl)acryloyl]-2H-chromen-2-one] showed an IC50 in test [2] of 35.68 ± 0.28 µM.

As for `COc1ccc(/C=C/C(=O)c2cc3ccccc3oc2=O)cc1` [Compound 3e, (E)-3-[3-(4-methoxyphenyl)acryloyl]-2H-chromen-2-one], in test [2] (setting [3]), the IC50 worked out at 105 ± 1.98 µM.

For the compound `O=C(/C=C/c1ccccc1Br)c1cc2ccccc2oc1=O` [Compound 3r, (E)-3-[3-(2-bromophenyl)acryloyl]-2H-chromen-2-one], the IC50 in test [2] came to 38.6 ± 1.87 µM.
